Columns and labels:
[1] = molecular target: T1, 11β-HSD1 (Homo sapiens, UniProt P28845); assay: Biological Test Example 4: microsomal 11β-HSD1 in the presence of 50% human plasma; conditions: for Shift: IC50 in Test Example 4 divided by IC50 in Test Example 1
[2] = molecular target: T1, 11β-HSD1; assay: biochemical; conditions: for inhibition at 0.1 µM: read-out: Average % inhibition at 100 nM
[3] = Biological Test Example 1 IC50 (nM)
[4] = IC50 Range, Biological Test Example 1

T1 sequence (P28845 whole entry): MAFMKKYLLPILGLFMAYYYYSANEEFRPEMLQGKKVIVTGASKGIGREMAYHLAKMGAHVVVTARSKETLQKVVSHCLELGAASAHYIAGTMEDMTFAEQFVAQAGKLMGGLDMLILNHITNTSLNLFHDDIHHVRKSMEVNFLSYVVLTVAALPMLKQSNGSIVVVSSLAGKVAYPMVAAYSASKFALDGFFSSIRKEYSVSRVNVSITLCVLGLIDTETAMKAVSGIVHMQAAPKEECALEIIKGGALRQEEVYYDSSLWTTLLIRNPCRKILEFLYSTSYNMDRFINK

| SMILES | IC50 [1] [nM] | Shift [1] | IC50 [2, 3] [nM] | IC50 [2, 4] [nM] | inhibition at 0.1 µM [2] [%] |
| --- | --- | --- | --- | --- | --- |
| C[C@@H](c1ccc(-c2cccc(N(C)C)n2)cc1)N1CC[C@](CC(C)(C)O)(c2ccccc2)OC1=O [EXAMPLE 30, (S)-3-((S)-1-(4-(6-(dimethylamino)pyridin-2-yl)phenyl)ethyl)-6-(2-hydroxy-2-methylpropyl)-6-phenyl-1,3-oxazinan-2-one] | 21.8 | 24.0 | 0.9 | < 100 | 98.1 |
| C[C@@H](c1ccc(-c2cnc(C(C)(C)O)nc2)cc1)N1CC[C@](CC(C)(C)O)(c2ccccc2)OC1=O [EXAMPLE 31, (S)-6-(2-hydroxy-2-methylpropyl)-3-((S)-1-(4-(2-(2-hydroxypropan-2-yl)pyrimidin-5-yl)phenyl)ethyl)-6-phenyl-1,3-oxazinan-2-one] | 9.3 | 1.9 | 4.8 | < 100 | 90.7 |
| C[C@@H](c1ccc(-c2cccnc2)cc1)N1CC[C@](CCC(N)=O)(c2ccc(F)cc2)OC1=O [EXAMPLE 41, 3-((R)-6-(4-fluorophenyl)-2-oxo-3-((S)-1-(4-(pyridin-3-yl)phenyl)ethyl)-1,3-oxazinan-6-yl)propanamide] | 11 |  | 1.9 | < 100 | 96.8 |
| C=CC[C@]1(c2ccc(F)cc2)CCN([C@@H](C)c2ccc(-c3sc(C)nc3C)cc2)C(=O)O1 [EXAMPLE 42, (R)-6-allyl-3-((S)-1-(4-(2,4-dimethylthiazol-5-yl)phenyl)ethyl)-6-(4-fluorophenyl)-1,3-oxazinan-2-one] | 34.3 | 33.4 | 1 | < 100 | 90.9 |
| C=CC[C@]1(c2ccc(F)cc2)CCN([C@@H](C)c2ccc(-n3ccc(C(F)(F)F)n3)cc2)C(=O)O1 [EXAMPLE 43, (R)-6-allyl-6-(4-fluorophenyl)-3-((S)-1-(4-(3-(trifluoromethyl)-1H-pyrazol-1-yl)phenyl)ethyl)-1,3-oxazinan-2-one] | 315 | 36.5 | 8.6 | < 100 | 86.2 |
| C[C@@H](c1ccc(-c2cccnc2)cc1)N1CC[C@](CCC(N)=O)(c2ccccc2)OC1=O [EXAMPLE 47, 3-((R)-2-oxo-6-phenyl-3-((S)-1-(4-(pyridin-3-yl)phenyl)ethyl)-1,3-oxazinan-6-yl)propanamide] | 21.4 |  | 2.6 | < 100 | 91 |
| C[C@@H](c1ccc(-c2ccncc2)cc1)N1CC[C@](CCC(N)=O)(c2ccccc2)OC1=O [EXAMPLE 48, 3-((R)-2-oxo-6-phenyl-3-((S)-1-(4-(pyridin-4-yl)phenyl)ethyl)-1,3-oxazinan-6-yl)propanamide] | 3.9 |  | 1 | < 100 | 94.3 |
| C[C@@H](c1ccc(-c2ccccn2)cc1)N1CC[C@](CCO)(c2ccc(F)cc2)OC1=O [EXAMPLE 57, (S)-6-(4-fluorophenyl)-6-(2-hydroxyethyl)-3-((S)-1-(4-(pyridin-2-yl)phenyl)ethyl)-1,3-oxazinan-2-one] | 19.2 | 18.8 | 1 | < 100 | 99.4 |
| C[C@@H](c1ccc(-c2ccccn2)cc1)N1CC[C@](CCC(N)=O)(c2ccc(F)cc2)OC1=O [EXAMPLE 60, 3-((R)-6-(4-fluorophenyl)-2-oxo-3-((S)-1-(4-(pyridin-2-yl)phenyl)ethyl)-1,3-oxazinan-6-yl)propanamide] | 20.8 | 13.1 | 1.6 | < 100 | 91.9 |
| COc1ccc(-c2ccc([C@H](C)N3CC[C@](CCO)(c4ccc(F)cc4)OC3=O)cc2)cn1 [EXAMPLE 63, (S)-6-(4-fluorophenyl)-6-(2-hydroxyethyl)-3-((S)-1-(4-(6-methoxypyridin-3-yl)phenyl)ethyl)-1,3-oxazinan-2-one] | 15.2 | 18.4 | 0.8 | < 100 | 101 |
| COc1ccc(-c2ccc([C@H](C)N3CC[C@](CCC(N)=O)(c4ccc(F)cc4)OC3=O)cc2)cn1 [EXAMPLE 66, 3-((R)-6-(4-fluorophenyl)-3-((S)-1-(4-(6-methoxypyridin-3-yl)phenyl)ethyl)-2-oxo-1,3-oxazinan-6-yl)propanamide] | 9.7 |  | 1.3 | < 100 | 95.6 |
| C[C@@H](c1ccc(-c2ccncc2)cc1)N1CC[C@](CCC(N)=O)(c2ccc(F)cc2)OC1=O [EXAMPLE 74, 3-((R)-6-(4-fluorophenyl)-2-oxo-3-((S)-1-(4-(pyridin-4-yl)phenyl)ethyl)-1,3-oxazinan-6-yl)propanamide] | 4.7 |  | 1.4 | < 100 | 95.7 |
| Cc1cc(-c2ccc([C@H](C)N3CC[C@](CCC(=O)O)(c4ccc(F)cc4)OC3=O)cc2)ccn1 [EXAMPLE 77, 3-((R)-6-(4-fluorophenyl)-3-((S)-1-(4-(2-methylpyridin-4-yl)phenyl)ethyl)-2-oxo-1,3-oxazinan-6-yl)propanoic acid] | 114 | 3.0 | 38.1 | < 100 | 79.9 |
| C[C@@H](c1ccc(-c2nccs2)cc1)N1CC[C@](CCCO)(c2ccc(F)cc2)OC1=O [EXAMPLE 82, (R)-6-(4-fluorophenyl)-6-(3-hydroxypropyl)-3-((S)-1-(4-(thiazol-2-yl)phenyl)ethyl)-1,3-oxazinan-2-one] | 25.2 |  | 1.8 | < 100 | 98.1 |
| Cc1nc(C)c(-c2ccc([C@H](C)N3CC[C@](CCC(N)=O)(c4ccc(F)cc4)OC3=O)cc2)s1 [EXAMPLE 84, 3-((R)-3-((S)-1-(4-(2,4-dimethylthiazol-5-yl)phenyl)ethyl)-6-(4-fluorophenyl)-2-oxo-1,3-oxazinan-6-yl)propanamide] | 12.4 | 3.5 | 3.5 | < 100 | 93.3 |
| C[C@@H](c1ccc(-c2ccccn2)cc1)N1CC[C@](CCO)(c2ccccc2)OC1=O [EXAMPLE 85, (S)-6-(2-hydroxyethyl)-6-phenyl-3-((S)-1-(4-(pyridin-2-yl)phenyl)ethyl)-1,3-oxazinan-2-one] | 12.9 |  | 0.9 | < 100 | 94.3 |
| C[C@@H](c1ccc(-c2ccccn2)cc1)N1CC[C@](CC(C)(C)O)(c2ccccc2)OC1=O [EXAMPLE 86, (S)-6-(2-hydroxy-2-methylpropyl)-6-phenyl-3-((S)-1-(4-(pyridin-2-yl)phenyl)ethyl)-1,3-oxazinan-2-one] | 6.4 | 11.1 | 0.6 | < 100 | 99.6 |
| C[C@@H](c1ccc(-c2ccccn2)cc1)N1CC[C@](CCC(N)=O)(c2ccccc2)OC1=O [EXAMPLE 88, 3-((R)-2-oxo-6-phenyl-3-((S)-1-(4-(pyridin-2-yl)phenyl)ethyl)-1,3-oxazinan-6-yl)propanamide] | 9.9 |  | 1.7 | < 100 | 98.3 |
